Data set [1] has as its system HL60 cells (human leukemia). The experiment in a line: Antitumor effect on human tumor cells (MTT assay), HL60. Type of data set: cell-based. To be noted: HL-60, same manner as Test Example 1. The protocol:
(§1) The cells subcultured in a CO2 incubator were each suspended in an RPM1 medium or Dulbecco's modified MEM medium, supplemented with 10%(v/v) fetal serum so as to give a cell density of 5×10^4 cells/mi. To a 135 μl portion of the suspension was added each test compound shown in Table 1 followed by 3-day incubation in a CO2 incubator. After the incubation was completed, 50% inhibition concentration (IC50) was determined by the MTT assay (Igaku no Ayumi, 128, 733 (1984)).
(§2) The antitumor effects of the compounds of the present invention were evaluated in the same manner as in Test Example 1 except that various human tumor cells were employed. The HL60 cells, the CCRF-CCM cells and the QG5 cells are derived from human leukemia, human T cells and human lung cancer, respectively.
A general note: Formazan colour is commonly taken as a measure of viable cells.

For a further data set, the system named is OG56 (human lung cancer). The experiment in a line: Antitumor effect on human tumor cells (MTT assay), OG56. The data set is classed as cell-based. The note with it: same manner as Test Example 1. The protocol: as §1, §2
Data set [2] can be described thus: Acute toxicity, intravenous administration to male BDF mice. The note with it: 3 mice per group. Type of data set: in vivo, mouse. The source says: The compounds of the present invention were intravenously administered to male BDF mice in order to examine the acute toxicity (each group having 3 mice).
Another data set relates to B16 cells (melanoma). The experiment in a line: Antitumor effect on mouse tumor cells (MTT assay), B16. Type of data set: cell-based. To be noted: 72 h, 3-day incubation. The method, then: (§3) The P388 and L1210 cells are derived from mouse leukemia. The MethA cells, the 3LL cells and the B16 cells are derived from solid cancer, Lewis lung cancer and melanoma, respectively.
as §1

Another data set has as its system CCRFCEM (human T cells). The data set can be described thus: Antitumor effect on human tumor cells (MTT assay), CCRFCEM. To be noted: CCRF-CEM, same manner as Test Example 1. The data set is classed as cell-based. The method, then: as §1, §2
Data set [3] has as its system MethA cells (solid cancer). The experiment in a line: Antitumor effect on mouse tumor cells (MTT assay), MethA. To be noted: Meth-A, 72 h, 3-day incubation. The data set is classed as cell-based. The protocol:
as §3, §1

Data set [4] concerns L1210 cells (mouse leukemia). The experiment in a line: Antitumor effect on mouse tumor cells (MTT assay), L1210. The note with it: 72 h, 3-day incubation. Type of data set: cell-based. The protocol: as §3, §1
The test system of data set [5] is P388 cells (mouse leukemia). The data set can be described thus: Antitumor effect on mouse tumor cells (MTT assay), P388. The data set is classed as cell-based. The note with it: 72 h, 3-day incubation. The protocol:
as §3, §1

The subject of data set [6] is 3LL cells (Lewis lung cancer). The data set can be described thus: Antitumor effect on mouse tumor cells (MTT assay), 3LL. Type of data set: cell-based. To be noted: 72 h, 3-day incubation. The protocol:
as §3, §1

The next data set concerns ras gene product p21. The data set can be described thus: Expression of ras gene product p21 in revertant cells (Western blotting). Type of data set: cell-based. To be noted: revertants isolated in Example 7, FIG. 2. The protocol: 2×10^6 portions of these cells were collected and each suspended in 1 ml of a buffer solution (100 mM NaCl, 20 mM Tris hydrochloride (pH 7.5), 5 mM MgCl2, 1% NonidetP-40 (polyoxyethylene(9)p-tert-octylphenol), 0.5% sodium deoxycholate, protease inhibitor) and then ground with a Potter homogenizer. After centrifuging at 3600 r.p.m. for 60 minutes, 10 μg portions of proteins were isolated from the supernatant by 12.5% polyacrylamide gel electrophoresis.
Then, the proteins in the gel were transferred into a nitrocellulose membrane and reacted with NCC-RAS-004, which was a monoclonal antibody for p21, at 4° C. for 24 hours to perform Western blotting. After reacting with rat Ig and ^125 I-Protein A, radioautography was performed.
On the technique in general: A western blot detects proteins with antibodies after separation by electrophoresis.

In data set [7] the test system is normal NIH3T3 cells. The data set can be described thus: Morphology of normal NIH3T3 cells, microscopic observation. Type of data set: cell-based, mouse. The note with it: 40 μg/ml, 6 days. The protocol: (§4) NIH3T3 cells transformed with the activated c-Ha-ras gene and normal NIH3T3 cells were incubated for 6 days in the presence of 40 μg/ml of the compound obtained in Example 3 under the same conditions as in Example 6. The cells were microscopically observed in detail.

The subject of data set [8] is NIH3T3 cells transformed with the activated ras gene. The experiment in a line: Growth inhibition of NIH3T3 cells transformed with activated c-Ha-ras gene. Type of data set: cell-based, mouse. To be noted: 40 μg/ml, 1st to 6th days, FIG. 1. The method, then:
(§5) NIH3T3 cells transformed with the activated ras gene (Proc. Natl. Acad. Sci. USA, 81, 4771-4775 (1984)) and normal NIH3T3 cells were incubated in a Dulbecco-modified Eagle medium containing 5% bovine serum. The initial cell concentrations were adjusted to 1×10^4 cells/mi. The compound obtained in Example 3 was added to a concentration of 40 μg/ml and the cell numbers were counted with the lapse of time from the 1st to the 6th days.

The test system of data set [9] is normal NIH3T3 cells. The experiment in a line: Growth of normal NIH3T3 cells. Type of data set: cell-based, mouse. To be noted: 40 μg/ml, 1st to 6th days, FIG. 1. The method, then:
as §5

The test system of data set [10] is revertant cells transplanted onto BALB/C nude mice. The data set can be described thus: Carcinogenic ability of revertant cells on nude mouse. The note with it: revertants of Example 7, 3×10^5 cells. Type of data set: in vivo.
Data set [11] deals with NIH3T3 cells transformed with the activated c-Ha-ras gene. The data set can be described thus: Acquisition of revertant cells from transformed NIH3T3 cells, microscopic observation. Type of data set: cell-based, mouse. To be noted: 40 μg/ml, 6 days. The protocol:
as §4

The conditions of data set [12]: Proceedings of 50th General Meeting of Japan Society of Cancer, 1991; cited from earlier work.
For data set [13], the system named is normal NIH3T3 cells. To be noted: 500 μg/ml, JP-A-1-110627; cited from earlier work.
Data set [14] concerns NIH3T3 cells transformed with the activated ras gene. To be noted: JP-A-1-110627, cited from earlier work.

Converted amounts (≈) assume the structure as drawn.

With `O=C1C=CC[C@@H](C(=O)O)N1` [Compound of Ex. 1], the IC50 – broadly, the concentration that gives 50% inhibition – in data set [1] worked out at 90 µg/mL (≈ 638 µM); in the data set with OG56 (human lung cancer), 180 µg/mL (≈ 1280 µM); with B16 cells (melanoma), 90 µg/mL (≈ 638 µM); with CCRFCEM (human T cells), 90 µg/mL (≈ 638 µM); in data set [3], 100 µg/mL (≈ 709 µM); in data set [4], 130 µg/mL (≈ 921 µM). Moreover, the IC50 in data set [5] is 200 µg/mL (≈ 1420 µM); in [6] it was 100 µg/mL (≈ 709 µM). Also, in data set [2], the “Survival dose (doses causing no death)” value amounted to 1000 mg/kg.

Regarding `O=C(O)[C@@H]1CC=CC(=S)N1` [Compound of Ex. 3], the IC50 stood at 20 µg/mL (≈ 127 µM) in data set [1]; 70 µg/mL (≈ 445 µM) in the data set with OG56 (human lung cancer); 45 µg/mL (≈ 286 µM) with B16 cells (melanoma); 20 µg/mL (≈ 127 µM) in the data set on CCRFCEM (human T cells); 11 µg/mL (≈ 70 µM) in [3]; 9 µg/mL (≈ 57.3 µM) in data set [4]. In addition, the IC50 in [5] is 5 µg/mL (≈ 31.8 µM); in data set [6] it was 11 µg/mL (≈ 70 µM). Also, the “Survival dose (doses causing no death)” value in data set [2] was determined as 800 mg/kg. The “expression of activated p21 in revertants” value in the data set with ras gene product p21 is given as “the activated p21 was expressed in the revertants”. Moreover, the “morphological change of normal NIH3T3 cells” value in the data set on normal NIH3T3 cells [7] is “no morphological change”. The “growth inhibition of NIH3T3 cells transformed with the activated ras gene” value in data set [8] is “inhibited the growth”. Besides, the “growth of normal NIH3T3 cells” value in the data set on normal NIH3T3 cells [9] is “continued to grow”. Moreover, the “tumor formation by revertants on nude mice” value in [10] was “scarcely induced tumor formation”. Further, the “death of transformed NIH3T3 cells” value in [11] is given as “partially died”. In addition, the “revertants among surviving transformed NIH3T3 cells (morphology)” value in data set [11] was “revertants which were flat and had nuclei and nucleoli morphologically similar to the normal NIH3T3 cells”.

As to `N=C1C=CCC(C(=O)O)N1` (stereo not drawn) [Compound of Ex. 4], in data set [2], the “Survival dose (doses causing no death)” value worked out at 600 mg/kg.

For the molecule `N=C1C=CC[C@@H](C(=O)O)N1` [SF2698], the IC50 turned out to be 45 µg/mL (≈ 321 µM) in [1]; 80 µg/mL (≈ 571 µM) with OG56 (human lung cancer); 41 µg/mL (≈ 293 µM) in the data set with B16 cells (melanoma); 45 µg/mL (≈ 321 µM) with CCRFCEM (human T cells); 46 µg/mL (≈ 328 µM) in data set [3]; 65 µg/mL (≈ 464 µM) in [4]. In addition, the IC50 in [5] is 120 µg/mL (≈ 856 µM); in data set [6] it was 51 µg/mL (≈ 364 µM). The “Survival dose (doses causing no death)” value in data set [2] was determined as 300 mg/kg. In addition, the antitumor activity entry in data set [12] is “has an antitumor activity”.

Consider `N[C@@H](Cc1ccc(O)cn1)C(=O)O` [azatyrosine, L-β-(5-hydroxy-2-pyridyl)alanine], for which, in the data set on normal NIH3T3 cells [13], the “growth inhibition of normal NIH3T3 cells (azatyrosine)” value is recorded as “never inhibited the growth”. Besides, in [14] (500 μg/ml), the “growth inhibition of NIH3T3 cells transformed with the activated ras gene (azatyrosine)” value is listed as “selectively inhibited the growth”. The “nature of cells surviving after treatment with azatyrosine” value in data set [14] is reported as “revertant cells”.
